Experimental data taken from patent publication US20180037601A1, “Nucleoside-Based Anti-Bacterial and Anti-Protozoan Drugs” (UTI Limited Partnership, priority 2015, published 2018).
“And” between values parts separate entries of the source, which are not always exact repeats. Equal entries are not always repeated. Where two headings read alike, the source gives them in different places.

Legend:
T.b. rhodesiense = conditions: literature ref. 30; cited from earlier work
L. donovani = conditions: literature ref. 55; cited from earlier work
T.b gambiense = conditions: literature ref. 30; cited from earlier work
[1] = test system: Plasmodium falciparum (KI), erythrocytic stages; test: In vitro growth inhibition assay of P. falciparum, [3H]-hypoxanthine incorporation; type: cell-based
From the text: (§1) Each of the nucleoside analogues was examined for in vitro activity against four parasites, T.b. rhodesiene, T. cruzi, L. donovoni and P. falciparum, as well as for cytotoxicity toward the L6 rat myoblast cell line.
(§2) All IC50 values are expressed as micromolar. Cytotoxicity (L6 rat myoblast cells); average of duplicate determinations. Trypanosoma brucei rhodesiense (STIB900); average of duplicate determinations. Selectivity index for T.b. rhodesiense (SIr); expressed as the ratio [IC50 (L6/IC50 (T.b. rhodesiense)]. Plasmodium falciparum ([…], resistant to chloroquine); average of duplicate determinations. Selectivity index for P. falciparum (SIp), expressed as the ratio [IC50 (L6/IC50 (P. falciparum)]. Leishmania donovani (MHOM/SD/62/IS-CL2D) axenic amastigotes; average of duplicate determinations. Selectivity index for L. donovani (SIL), expressed as the ratio [IC50 (L6/IC50 (L. donovani)]. Trypanosoma cruzi; average of duplicate determinations. Selectivity index for T. cruzi (SIC), expressed as the ratio [IC50(L6/IC50(T. cruzi)]. IA. Nucleoside analogs designed to be activated via Pathway I. IB. Nucleoside analogs designed to be activated via Pathway II. Phth=phthalimido.
In vitro growth inhibition assay of P. falciparum (KI). The determination of IC50 values against erythrocytic stages of P. falciparum was carried out in duplicate using the [^3H]-hypoxanthine incorporation assay.^58,59

[2] = In vitro cytotoxicity assay (L6 rat myoblast cells), Alamar blue; type: cell-based; conditions: read-out: Cytotoxicity IC50 toward L6 mammalian cell line
From the text: as §1, §2
In vitro cytoxicity assay (L6 Rat Myoblast cells). IC50 values were determined using the Alamar blue assay^62 and were carried out twice independently.

[3] = test system: Trypanosoma brucei rhodesiense (STIB900); test: In vitro growth inhibition assay of T.b. rhodesiense (STIB900), Alamar blue; type: cell-based
From the text: as §1, §2
Preparation of compounds for assay. Compounds were dissolved in 100% dimethyl sulfoxide (DMSO) and diluted in the culture medium prior to the in vitro assay. The DMSO concentration never exceeded 1% in the in vitro Alamar Blue assays at the highest drug concentration.
In vitro growth inhibition assay of T.B. rhodesiense (STIB900). IC50 values were determined using the Alamar blue assay and were carried out twice independently and in duplicate as described.^57

Trypanosoma cruzi = test: In vitro activity against T. cruzi; type: cell-based; conditions: for IC50: Trypanosoma cruzi
From the text: as §1, §2

[4] = test system: Leishmania donovani (MHOM/SD/62/IS-CL2D) axenic amastigotes; test: In vitro growth inhibition assay of L. donovani axenic amastigotes, CellTiter; type: cell-based; conditions: for IC50: Leishmania donovani, axenic amastigotes, average of duplicate determinations, read-out: IC50 against L. donovani
From the text: as §1, §2
In vitro growth inhibition assay of L. Donovani. Axenic amastigotes of L. Donovaniwere adapted from promastigotes and grown in the amastigote medium previously described.^60 The tetrazolium dye-based CellTiter reagent (Promega, Madison, Wis.) was used to assess parasite growth.^61

Leishmania donovani [5] = conditions: literature ref. 29; cited from earlier work
Leishmania donovani [6] = conditions: literature ref. 29; cited from earlier work; remark: listed apart in the source
[7] = average of duplicate determinations, read-out: IC50 against T. cruzi

O=C1N=CN=C2C([C@@H]3O[C@H](CO)[C@@H](O)[C@H]3O)=CN=C12 [9-deaza-inosine]
Activity against T.b. rhodesiense (T.b. rhodesiense): active | Activity against L. donovani in a squirrel monkey in vivo model (L. donovani): activity | Activity against T.b gambiense (T.b gambiense): active

CSC[C@H]1O[C@@H](n2cnc3c(N)nc(F)nc32)[C@H](O)[C@@H]1O [ACT-51, 5′-Deoxy-2-fluoro-5′-(methylthio)adenosine]
Activity against P. falciparum (in words) [1]: strong activity | IC50 [2]: 0.584 µM | Activity against Trypanosoma brucei (in words) [3]: strong activity | IC50 (Trypanosoma cruzi; [7]): 2.6 µM | Activity against L. donovani (in words) [4]: strong activity

CSC[C@H]1O[C@@H](n2cnc3c(N(C)N=O)nc(F)nc32)[C@H](O)[C@@H]1O [ACT-88, 5′-Deoxy-2-fluoro-N^6-methyl-5′-methylthio-N^6-nitrosoadenosine]
IC50 ([1]; Plasmodium falciparum, read-out: IC50 against Plasmodium falciparum): 0.11 µM | Selectivity index for P. falciparum (SIp) ([1]; ratio IC50 (L6)/IC50 (P. falciparum)): 983 and 1254 | Activity against Trypanosoma brucei (in words) [3]: absence | Activity against Trypanosoma cruzi (in words) (Trypanosoma cruzi): absence | Activity against L. donovani (in words) [4]: absence

Nc1nc(Cl)c2ccn(C3O[C@H](CO)[C@@H](O)[C@H]3O)c2n1 (stereo partly drawn) [ACT-91, 2-Amino-6-chloro-7-deaza-9-(D-ribofuranosyl)purine]
melting point: 172 to 173 °C | IC50 ([3]; Trypanosoma brucei, STIB900, average of duplicate determinations, read-out: IC50 against T.b. rhodesiense): 0.13 µM | IC50 (Trypanosoma cruzi; [7]): 3.4 µM | Selectivity index for T. cruzi (SIC) (Trypanosoma cruzi; ratio IC50 (L6)/IC50 (T. cruzi)): 48 | IC50 [4]: 0.06 µM | Selectivity index for L. donovani (SIL) ([4]; ratio IC50 (L6)/IC50 (L. donovani)): 2720 and 2717

CC(=O)O[C@@H]1[C@H](OC(C)=O)[C@@H](CN=[N+]=[N-])O[C@H]1n1cnc2c(N)nc(Cl)nc21 [Compound 41, 2′,3′-Di-O-Acetyl-5′-azido-2-chloro-5′-deoxyadenosine]
melting point: 75 to 77 °C

CC(=O)O[C@@H]1[C@H](OC(C)=O)[C@@H](CN2C(=O)c3ccccc3C2=O)O[C@H]1n1cnc2c(N)nc(F)nc21 [Compound 44, 2′,3′-Di-O-acetyl-5′-deoxy-2-fluoro-5′-phthalimidoadenosine]
melting point: 237 to 239 °C

CC(=O)O[C@@H]1[C@H](OC(C)=O)[C@@H](CN2C(=O)c3ccccc3C2=O)O[C@H]1n1cnc2c(N)nc(Cl)nc21 [Compound 45, 2′,3′-Di-O-acetyl-2-chloro-5′-deoxy-5′-phthalimidoadenosine]
melting point: 256 °C

CC(=O)O[C@@H]1[C@H](OC(C)=O)[C@@H](CI)O[C@H]1n1cnc2c(N)nc(F)nc21 [Compound 46, 2′,3′-Di-O-acetyl-5′-deoxy-2-fluoro-5′-iodoadenosine]
melting point: 181 to 182 °C

CC(=O)O[C@@H]1[C@H](OC(C)=O)[C@@H](CI)O[C@H]1n1cnc2c(N)nc(Cl)nc21 [Compound 47, 2′,3′-Di-O-acetyl-2-chloro-5′-deoxy-5′-iodoadenosine]
melting point: 93 °C

[N-]=[N+]=NC[C@H]1O[C@@H](n2cnc3c(N)nc(Cl)nc32)[C@H](O)[C@@H]1O [Compound 49, 5′-Azido-2-chloro-5′-deoxyadenosine]
melting point: 222 to 223 °C

CSC[C@H]1O[C@@H](n2cnc3c(N)nc(NN)nc32)[C@H](O)[C@@H]1O [Compound 58, 5′-Deoxy-2-hydrazino-5′-(methylthio)adenosine]
melting point: 168 to 169 °C

CSC[C@H]1O[C@@H](n2cnc3c(N)nc(C#N)nc32)[C@H](O)[C@@H]1O [Compound 71, 2-Cyano-5′-deoxy-5′-(methylthio)adenosine]
melting point: 184 to 185 °C

CNc1nc(C#N)nc2c1ncn2[C@@H]1O[C@H](C)[C@@H](O)[C@H]1O [Compound 72, 2-Cyano-5′-deoxy-N^6-methyladenosine]
melting point: 193 to 194 °C

CNc1nc(C#N)nc2c1ncn2[C@@H]1O[C@H](CSC)[C@@H](O)[C@H]1O [Compound 73, 2-Cyano-5′-deoxy-N^6-methyl-5′-(methylthio)adenosine]
melting point: 193 to 194 °C

O=c1[nH]cnc2c([C@@H]3O[C@H](CO)[C@@H](O)[C@H]3O)n[nH]c12 [Formycin B]
Activity against T.b. rhodesiense (T.b. rhodesiense): active | Inhibition of Leishmania donovani in vitro (Leishmania donovani [5]): inhibits | Activity against T.b gambiense (T.b gambiense): active | Therapeutic activity in a hamster model (Leishmania donovani [6]): therapeutically active

O=C(Cn1ccnc1[N+](=O)[O-])NCc1ccccc1 [benznidazole, reference compound]
IC50 (Trypanosoma cruzi; standard drug listed in the table, read-out: IC50 against T. cruzi (standard)): 0.427 µM

CCCCCCCCCCCCCCCCOP(=O)([O-])OCC[N+](C)(C)C [miltefosine, reference compound]
IC50 [4]: 0.122 µM
